Assay results as given in patent US9326513B2, “Fungicidal compositions” (Syngenta Participations AG, priority 2011, dated 2016).

Experiments:
Type in all cases: in vivo
Settings in all cases: foliar, compared to untreated control leaf disks, read-out: disease control
[1] = test system: Blumeria graminis f. sp. tritici (Erysiphe graminis f. sp. tritici); experiment: Blumeria graminis f. sp. tritici / wheat / leaf disc preventative (powdery mildew on wheat)
Procedure, shortened: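 Wheat leaf segments (cv. Kanzler) on agar were sprayed with formulated compound in water, inoculated with powdery mildew 1 day later, and kept at 20° C, 60% rh (24 h dark, then 12 h light/12 h dark). Percent disease control versus untreated scored 6-8 days after application; tested at 200 ppm.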

[2] = test system: Puccinia recondita f. sp. tritici; experiment: Puccinia recondita f. sp. tritici / wheat / leaf disc preventative (brown rust)
Source text: Puccinia recondita f. sp. tritici/Wheat/Leaf Disc Preventative (Brown Rust) Wheat leaf segments cv. Kanzler were placed on agar in multiwell plates (24-well format) and sprayed with the formulated test compound diluted in water. The leaf disks were inoculated with a spore suspension of the fungus 1 day after application.

[3] = test system: Puccinia recondita f. sp. tritici; experiment: Puccinia recondita f. sp. tritici / wheat / leaf disc curative (brown rust)
Experimental: Puccinia recondita f. sp. tritici/Wheat/Leaf Disc Curative (Brown Rust) Wheat leaf segments cv. Kanzler are placed on agar in multiwell plates (24-well format). The leaf segments are inoculated with a spore suspension of the fungus. Plates were stored in darkness at 19° C. and 75% rh. The formulated test compound diluted in water was applied 1 day after inoculation.

Pyrenophora teres = Pyrenophora teres / barley / leaf disc preventative (net blotch)
Source text: Pyrenophora teres/Barley/Leaf Disc Preventative (Net Blotch) Barley leaf segments cv. Hasso were placed on agar in a multiwell plate (24-well format) and sprayed with the formulated test compound diluted in water. The leaf segments were inoculated with a spore suspension of the fungus 2 days after application.

Measured: pest or weed control at 200 ppm

CCN(C)/C=N/c1cc(Br)c(OC2Cc3cccc(C)c3C2)nc1C (stereo not drawn) [Q.200]
≥ 50%: [1] | [2] | [3] | Pyrenophora teres

CCN(C)/C=N/c1cc(Br)c(OC(C)c2ccccc2)nc1C (stereo not drawn) [Q.102]
≥ 50%: [1] | [2] | [3] | Pyrenophora teres

CCN(C)/C=N/c1cc(Br)c(OCC2CCCC(C#N)C2)nc1C (stereo not drawn) [Q.032]
≥ 50%: [1] | [2] | [3] | Pyrenophora teres

CCN(C)/C=N/c1cc(Br)c(OCCCC(C)=C(C)C)nc1C [Q.103]
≥ 50%: [1] | [2] | [3] | Pyrenophora teres

CCN(C)/C=N/c1cc(Br)c(OC2CCc3cccc(OC)c3C2)nc1C (stereo not drawn) [Q.024]
≥ 50%: [1] | [2] | [3] | Pyrenophora teres

CCN(C)/C=N/c1cc(Br)c(OCCCCc2ccc(F)cc2)nc1C [Q.026]
≥ 50%: [1] | [2] | [3] | Pyrenophora teres

CCN(C)/C=N/c1cc(Br)c(OCc2ccc(C(F)(F)F)nc2)nc1C [Q.136]
≥ 50%: [1] | [2] | [3] | Pyrenophora teres

CCN(C)/C=N/c1cc(Br)c(OC2CCOCC2)nc1C [Q.244]
≥ 50%: [1] | [2] | [3] | Pyrenophora teres

CCN(C)/C=N/c1cc(Br)c(OCc2cccc(I)c2)nc1C [Q.174]
≥ 50%: [1] | [2] | [3] | Pyrenophora teres

CCN(C)/C=N/c1cc(Br)c(OCc2cccnc2)nc1C [Q.106]
≥ 50%: [1] | [2] | [3] | Pyrenophora teres

CCN(C)/C=N/c1cc(Br)c(OCCCc2ccc(F)cc2)nc1C [Q.131]
≥ 50%: [1] | [2] | [3] | Pyrenophora teres

C=CCOc1nc(C)c(/N=C/N(C)CC)cc1Br [Q.393]
≥ 50%: [1] | [2] | [3] | Pyrenophora teres

CCN(C)/C=N/c1cc(Br)c(O[C@H](C)c2cc(F)cc(F)c2)nc1C [Q.261]
≥ 50%: [1] | [2] | [3] | Pyrenophora teres

CCN(C)/C=N/c1cc(Br)c(OCC#Cc2ccccc2)nc1C [Q.016]
≥ 50%: [1] | [2] | [3] | Pyrenophora teres

C=CCCCOc1nc(C)c(/N=C/N(C)CC)cc1C [Q.057]
≥ 50%: [1] | [2] | [3] | Pyrenophora teres

CCN(C)/C=N/c1cc(Br)c(OC2CCC(=C(Cl)Cl)CC2)nc1C (stereo not drawn) [Q.071]
≥ 50%: [1] | [2] | [3] | Pyrenophora teres

CCN(C)/C=N/c1cc(Br)c(OCC#Cc2cccc(OC)c2)nc1C [Q.020]
≥ 50%: [1] | [2] | [3] | Pyrenophora teres

CCN(C)/C=N/c1cc(Br)c(OC2CCS(=O)(=O)CC2)nc1C [Q.161]
≥ 50%: [1] | [2] | [3] | Pyrenophora teres

CCN(C)/C=N/c1cc(Br)c(OCc2ccc(F)c(F)c2)nc1C [Q.206]
≥ 50%: [1] | [2] | [3] | Pyrenophora teres

CCN(C)/C=N/c1cc(C(F)F)c(OC(C)c2cc(F)cc(F)c2)nc1C (stereo not drawn) [Q.215]
≥ 50%: [1] | [2] | [3] | Pyrenophora teres

CCN(C)/C=N/c1cc(Br)c(OC2CCC(OC(=O)C(C)C)CC2)nc1C (stereo not drawn) [Q.211]
≥ 50%: [1] | [2] | [3] | Pyrenophora teres

CCN(C)/C=N/c1cc(Br)c(OCc2ccccc2[S+](C)[O-])nc1C (stereo not drawn) [Q.336]
≥ 50%: [1] | [2] | [3] | Pyrenophora teres

C=CCOC1CCC(Oc2nc(C)c(/N=C/N(C)CC)cc2Br)CC1 (stereo not drawn) [Q.212]
≥ 50%: [1] | [2] | [3] | Pyrenophora teres

C=Cc1cccc(COc2nc(C)c(/N=C/N(C)CC)cc2Br)c1 [Q.277]
≥ 50%: [1] | [2] | [3] | Pyrenophora teres

C=Cc1cccc(C(C)Oc2nc(C)c(/N=C/N(C)CC)cc2Br)c1 (stereo not drawn) [Q.278]
≥ 50%: [1] | [2] | [3] | Pyrenophora teres

CCN(C)/C=N/c1cc(Br)c(OC2CC=CCC2)nc1C (stereo not drawn) [Q.316]
≥ 50%: [1] | [2] | [3] | Pyrenophora teres

CCN(C)/C=N/c1cc(Br)c(OC2CCc3ccc(/C(C)=N/OC)cc3C2)nc1C (stereo not drawn) [Q.039]
≥ 50%: [1] | [2] | [3] | Pyrenophora teres

CCN(C)/C=N/c1cc(I)c(OC(C)c2cc(F)cc(F)c2)nc1C (stereo not drawn) [Q.178]
≥ 50%: [1] | [2] | [3] | Pyrenophora teres

CCN(C)/C=N/c1cc(Br)c(OC(C)C2CCc3ccccc3C2)nc1C (stereo not drawn) [Q.225]
≥ 50%: [1] | [2] | [3] | Pyrenophora teres

C=CC(C)Oc1nc(C)c(/N=C/N(C)CC)cc1Br (stereo not drawn) [Q.394]
≥ 50%: [1] | [2] | [3] | Pyrenophora teres

CCN(C)/C=N/c1cc(Br)c(OC2CCN(S(=O)(=O)N(C)C)CC2)nc1C [Q.164]
≥ 50%: [1] | [2] | [3] | Pyrenophora teres

CCN(C)/C=N/c1cc(Br)c(OC2Cc3ccc(Cl)cc3C2)nc1C (stereo not drawn) [Q.233]
≥ 50%: [1] | [2] | [3] | Pyrenophora teres

C=CCCCOc1nc(C)c(/N=C/N(C)CC)cc1Br [Q.034]
≥ 50%: [1] | [2] | [3] | Pyrenophora teres

CCN(C)/C=N/c1cc(Br)c(OC(C)c2ccccc2Cl)nc1C (stereo not drawn) [Q.301]
≥ 50%: [1] | [2] | [3] | Pyrenophora teres

CCN(C)/C=N/c1cc(Br)c(OCC2CCCc3ccccc32)nc1C (stereo not drawn) [Q.226]
≥ 50%: [1] | [2] | [3] | Pyrenophora teres

CCN(C)/C=N/c1cc(Br)c(OC(C)c2ccncc2)nc1C (stereo not drawn) [Q.117]
≥ 50%: [1] | [2] | [3] | Pyrenophora teres

CCN(C)/C=N/c1cc(Br)c(OCc2ccccc2)nc1C [Q.095]
≥ 50%: [1] | [2] | [3] | Pyrenophora teres

CCN(C)/C=N/c1cc(Br)c(OC(C)c2ccc3c(c2)CCCC3)nc1C (stereo not drawn) [Q.238]
≥ 50%: [1] | [2] | [3] | Pyrenophora teres

CCN(C)/C=N/c1cc(Br)c(OCc2cc(OC)cc(OC)c2)nc1C [Q.370]
≥ 50%: [1] | [2] | [3] | Pyrenophora teres

CCN(C)/C=N/c1cc(Br)c(OC(C)c2ccccc2F)nc1C (stereo not drawn) [Q.299]
≥ 50%: [1] | [2] | [3] | Pyrenophora teres

CCC(C)Oc1nc(C)c(/N=C/N(C)CC)cc1Br (stereo not drawn) [Q.389]
≥ 50%: [1] | [2] | [3] | Pyrenophora teres

CCN(C)/C=N/c1cc(Br)c(OC2CCc3cc(F)ccc3C2)nc1C (stereo not drawn) [Q.025]
≥ 50%: [1] | [2] | [3] | Pyrenophora teres
